Experimental data reported in the NIST ThermoML archive (doi:10.1016/j.jct.2012.11.005).

Experiments:
[1] = 101.33 kPa, Liquid, Vibrating tube method
[2] = refractive index (Na D-line) (dimensionless); details: 293.15 K; 101.33 kPa; Liquid; Standard Abbe refractometry
[3] = Boiling temperature at pressure P; details: Liquid, Closed cell (Static) method

CCCCO [butan-1-ol]
Details	mass density [kg/m3]
[1], 298.15 K	805.851

Details	refractive index
[2]	1.39705

CC(C)OC(C)C [diisopropyl ether]
Details	mass density [kg/m3]
[1], 298.15 K	718.511

Details	refractive index
[2]	1.36547

CCO [ethanol]
Details	Boiling temperature at pressure P [°C]	mass density [kg/m3]
[1], 298.15 K	–	784.89
[3], 17.99 kPa	40.00	–
[3], 20 kPa	42.23	–
[3], 29.6 kPa	50.00	–
[3], 40 kPa	56.49	–
[3], 47.01 kPa	60.00	–
[3], 49.99 kPa	61.37	–
[3], 59.93 kPa	65.51	–
[3], 69.95 kPa	69.13	–
[3], 79.91 kPa	72.33	–
[3], 89.92 kPa	75.16	–
[3], 100.07 kPa	77.90	–

Details	refractive index
[2]	1.35929

CO [methanol]
Details	Boiling temperature at pressure P [°C]	mass density [kg/m3]
[1], 298.15 K	–	786.624
[3], 19.97 kPa	28.22	–
[3], 24.04 kPa	32.00	–
[3], 29.98 kPa	36.41	–
[3], 39.04 kPa	42.00	–
[3], 50.01 kPa	47.57	–
[3], 60.94 kPa	52.00	–
[3], 69.96 kPa	55.42	–
[3], 79.92 kPa	58.59	–
[3], 89.99 kPa	61.58	–
[3], 100 kPa	64.18	–

Details	refractive index
[2]	1.32643

C1CCCCC1 [cyclohexane]
Details	mass density [kg/m3]
[1], 293.15 K	778.414

Details	refractive index
[2]	1.42655
